Our source for the MIC and combination effect values is patent US20090018111A1, “Novel Antimicrobial Medicament” (priority 2004, published 2009).

What is called MIC is the lowest concentration found to suppress growth.

Where two headings read alike, the source gives them in different places.

The test system of experiment [1] is E. faecium ATCC19434. In words: Sensitivity test (agar dilution). In kind it is cell-based, Enterococcus faecium. The conditions noted are these: Enterococcus faecium, E. faecium ATCC19434. The method in brief:
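Each strain, cultured overnight at 37° C and adjusted to about 10^6 CFU/ml in BSG, was spotted (about 5 μl) on Mueller Hinton agar with twofold serial drug concentrations. Inhibition defines the MIC.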
On the technique in general: In agar dilution the substance is mixed into plates at graded concentrations.

For experiment [2], the system named is 18 bacteria (27 standard strains). In words: Sensitivity test, combination effect over the standard strains. The conditions noted are these: in combination with compound 1, standard strains. In kind it is cell-based. How it is done: The antibacterial activities were tested against various 18 bacteria (27 standard strains) which are representative bacteria caused clinically infectious disease (Staphylococcus aureus 3 strains, Staphylococcus epidermidis 1 strain, Micrococcus luteus 1 strain, Streptococcus pyogenes 1 strain, Enterococcus faecalis 1 strain, Enterococcus faecium 1 strain, Bacillus subtilis 1 strain, Escherichia coli 3 strains, Klebsiella pneumoniae 1 strain, Proteus mirabilis 1 strain, Proteus vulgaris 2 strains, Pseudomonas aeruginosa 3 strains, Serratia marcescens 2 strains, Enterobacter aerogenes 1 strain, Stenotrophomonas maltophilia 1 strain, Enterobacter cloacae 1 strain, Citrobacter freundii 1 strain, Moraxella catarrhalis 2 strains).
According to the standard method of Japan Chemotherapeutic Society (Chemotherapy, vol. […], p 76-79 (1981)) the test was carried out using the agar dilution method. After dissolving test samples in distilled water, agar medium containing the test samples was prepared in such a manner that the final concentration became twice serial dilution by pouring serially diluted combination drug solution or a single drug solution into agar medium. As agar medium was used Mueller Hinton Agar medium (MHA). Then, each strain was cultivated over night at 37° C. in an incubator and suspended in buffered saline solution with gelatin (BSG) in the concentration of about 10^6 CFU/ml. The suspension (about 5 μl) containing test strains was inoculated to the medium containing the test samples by Micro Planter.
When the sample is subjected to sensitivity test, this mixed solution was diluted by twice serial dilution method.
FIC index based on MIC value was calculated. […] Namely, when FIC index calculated by the following formula is equal or less than 1, the enhanced effect of the combination drug in said ratio is considered as positive. When FIC index is over 1, the enhanced effect of the combination drug in said ratio is considered as negative.
Formula of FIC index: FIC index=(MIC of Drug A in combination/MIC of Drug A alone)+(MIC of Drug B in combination/MIC of Drug B alone) N.C. in tables means being not calculated.

The mark [3] stands for this setting: ATCC19434, drug alone, read-out: MIC alone.

Turning to `CC(C)(O/N=C(\C(=O)N[C@@H]1C(=O)N2C(C(=O)[O-])=C(C[n+]3ccccc3)CS[C@H]12)c1csc(N)n1)C(=O)O` [CAZ, ceftazidime], the minimal inhibitory concentration (MIC) in experiment [1] (ATCC19434, Concomitant (CAZ:SM = 1:1), read-out: MIC concomitant) is 0.125 µg/mL; in experiment [1] (setting [3]), > 32 µg/mL. Also, in experiment [2], the combination effect result was “antagonism was recognized”.
For `CCN1CCN(C(=O)N[C@@H](C(=O)N[C@@H]2C(=O)N3[C@@H]2SC(C)(C)[C@@H]3C(=O)O)c2ccccc2)C(=O)C1=O` [PIPC, piperacillin], the minimum inhibitory concentration (MIC) in experiment [1] (ATCC19434, Concomitant (PIPC:SM = 1:1), read-out: MIC concomitant) worked out at 0.125 µg/mL; in experiment [1] (setting [3]), 8 µg/mL. Besides, the combination effect entry in experiment [2] is given as “antagonism was recognized”.
